In one test the target is T1, KDM2B (FBXL10) (Homo sapiens, UniProt Q8NHM5).
T1 sequence (Q8NHM5 1-650): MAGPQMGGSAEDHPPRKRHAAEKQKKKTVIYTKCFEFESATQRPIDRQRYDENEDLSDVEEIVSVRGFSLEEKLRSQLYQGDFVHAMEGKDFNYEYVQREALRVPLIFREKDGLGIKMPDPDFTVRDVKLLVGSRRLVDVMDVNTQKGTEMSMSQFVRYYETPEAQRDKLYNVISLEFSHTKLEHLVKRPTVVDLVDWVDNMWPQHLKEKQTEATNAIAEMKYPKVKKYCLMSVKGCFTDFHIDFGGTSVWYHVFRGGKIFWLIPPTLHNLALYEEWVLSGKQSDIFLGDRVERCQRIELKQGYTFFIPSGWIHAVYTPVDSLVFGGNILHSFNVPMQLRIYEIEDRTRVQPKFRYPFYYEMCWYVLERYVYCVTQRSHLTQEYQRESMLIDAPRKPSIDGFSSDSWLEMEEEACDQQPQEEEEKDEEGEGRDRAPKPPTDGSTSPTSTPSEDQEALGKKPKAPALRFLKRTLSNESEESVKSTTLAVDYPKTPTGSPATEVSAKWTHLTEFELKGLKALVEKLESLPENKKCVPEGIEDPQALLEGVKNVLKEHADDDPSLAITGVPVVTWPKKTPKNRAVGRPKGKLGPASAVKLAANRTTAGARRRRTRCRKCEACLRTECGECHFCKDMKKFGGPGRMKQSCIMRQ
The experiment in a line: Histone lysine demethylase AlphaLISA assay, KDM2B. The conditions noted are these: read-out: KDM2B HDME Inhibition IC50. The test is classed as biochemical. The method in brief: (§1)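 Each enzyme was pre-incubated 10 min in buffer, then 10 min with compound in 3% DMSO solution. The reaction started with biotinylated histone H3 peptide substrate plus 25 μM L-ascorbate and 10 μM α-KG at room temperature. Detection used AlphaLISA acceptor beads, then streptavidin donor beads, in the dark.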
For orientation: Bead proximity is the source of the signal in Alpha formats.

The next test addresses T2, KDM4C (JMJD2C) (Homo sapiens, UniProt Q9H3R0).
T2 sequence (Q9H3R0 1-349): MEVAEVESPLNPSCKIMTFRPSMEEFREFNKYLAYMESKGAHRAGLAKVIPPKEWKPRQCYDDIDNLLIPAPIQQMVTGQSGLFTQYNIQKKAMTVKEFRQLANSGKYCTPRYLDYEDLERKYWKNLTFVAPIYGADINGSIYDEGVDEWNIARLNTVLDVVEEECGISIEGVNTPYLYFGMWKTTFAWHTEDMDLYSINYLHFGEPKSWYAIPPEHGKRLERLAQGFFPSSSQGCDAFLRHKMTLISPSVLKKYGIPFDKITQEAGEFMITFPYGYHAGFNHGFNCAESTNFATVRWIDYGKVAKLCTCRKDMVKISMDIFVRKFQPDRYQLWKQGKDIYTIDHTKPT
The experiment in a line: Histone lysine demethylase AlphaLISA assay, KDM4C. Particulars: read-out: KDM4C HDME Inhibition IC50. The test is classed as biochemical. The method in brief: as §1

The target in a further test is T3, KDM5B (PLU-1) (Homo sapiens, UniProt Q9UGL1).
T3 sequence (Q9UGL1 1-809): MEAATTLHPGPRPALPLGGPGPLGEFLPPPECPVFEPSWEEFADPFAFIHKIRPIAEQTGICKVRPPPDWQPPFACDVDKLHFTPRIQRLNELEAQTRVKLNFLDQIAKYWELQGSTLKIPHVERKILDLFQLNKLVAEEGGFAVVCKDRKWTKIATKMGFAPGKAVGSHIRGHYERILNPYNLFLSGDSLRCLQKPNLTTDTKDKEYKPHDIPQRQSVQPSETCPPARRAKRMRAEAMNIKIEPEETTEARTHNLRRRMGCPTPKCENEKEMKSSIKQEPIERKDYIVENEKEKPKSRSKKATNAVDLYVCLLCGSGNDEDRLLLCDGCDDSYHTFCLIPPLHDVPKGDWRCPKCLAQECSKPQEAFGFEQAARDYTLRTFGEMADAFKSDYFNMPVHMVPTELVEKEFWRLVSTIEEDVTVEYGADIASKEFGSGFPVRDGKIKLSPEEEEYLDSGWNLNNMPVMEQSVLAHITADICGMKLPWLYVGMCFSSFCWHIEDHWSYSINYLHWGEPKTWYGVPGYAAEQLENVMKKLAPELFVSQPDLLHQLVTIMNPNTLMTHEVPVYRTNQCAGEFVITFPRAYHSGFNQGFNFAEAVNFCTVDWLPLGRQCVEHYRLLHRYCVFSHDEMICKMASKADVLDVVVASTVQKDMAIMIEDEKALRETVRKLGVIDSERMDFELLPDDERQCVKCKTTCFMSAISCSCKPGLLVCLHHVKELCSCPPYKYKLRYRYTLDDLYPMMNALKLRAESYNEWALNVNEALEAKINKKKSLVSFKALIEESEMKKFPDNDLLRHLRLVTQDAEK
The experiment in a line: Histone lysine demethylase AlphaLISA assay, KDM5B. The test is classed as biochemical. Particulars: read-out: KDM5B HDME Inhibition IC50. The method, boiled down: as §1

The next test has as its target KDM6A (UTX) (Homo sapiens, UniProt O15550). The experiment in a line: Histone lysine demethylase AlphaLISA assay, KDM6A. It counts as biochemical. The conditions noted are these: read-out: KDM6A HDME Inhibition IC50. The method in brief: as §1
In the next test the test system is MCF7 cells. The experiment in a line: Cell proliferation assay MCF7. The test is classed as cell-based. Particulars: MCF7 human breast cancer cells; 120 hours; ATPlite 1 Step. The method, boiled down: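 Cells grown 24 h in DMEM GlutaMAX/10% FBS, then exposed to compounds in duplicate (≤0.5% DMSO) for 120 h. Viability read as ATP luminescence (ATPlite 1 Step). Seeding set to reach ~90% confluence at harvest.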

The test system of the next test is KARPAS620. The experiment in a line: Cell proliferation assay KARPAS620. The test is classed as cell-based. Particulars: Homo sapiens, Karpas-620; KARPAS620, Plasma cell leukemia; method of Example 5. The method, then:
(§2) MCF7 cells were seeded in multi well plates at a density optimized to give approximately 90% confluent cells at the time of harvest. Cells were incubated for 24 hours before addition of compound. Compounds were diluted in complete medium and added to the plates in duplicates. The final concentration of DMSO was maximum 0.5%. Complete medium used was DMEM with GlutaMAX containing 10% FBS and pen/strep.
(§3) 120 hours after addition of compounds, the plates were harvested and analyzed by ATPlite 1 Step (Perkin Elmer, cat no 6016739) according to the manufactures recommendation.
(§4) The assays were performed by the method of Example 5 by seeding the relevant cell line at a density optimized to give approximately 90% confluent cells at the time of harvest.

The next test concerns MOLP8. The experiment in a line: Cell proliferation assay MOLP8. It counts as cell-based. The conditions noted are these: Homo sapiens, MOLP-8; MOLP8, Myeloma; method of Example 5. As for the experimental part: as §2, §3, §4

KDM6A (UTX), sequence (O15550 919-1401): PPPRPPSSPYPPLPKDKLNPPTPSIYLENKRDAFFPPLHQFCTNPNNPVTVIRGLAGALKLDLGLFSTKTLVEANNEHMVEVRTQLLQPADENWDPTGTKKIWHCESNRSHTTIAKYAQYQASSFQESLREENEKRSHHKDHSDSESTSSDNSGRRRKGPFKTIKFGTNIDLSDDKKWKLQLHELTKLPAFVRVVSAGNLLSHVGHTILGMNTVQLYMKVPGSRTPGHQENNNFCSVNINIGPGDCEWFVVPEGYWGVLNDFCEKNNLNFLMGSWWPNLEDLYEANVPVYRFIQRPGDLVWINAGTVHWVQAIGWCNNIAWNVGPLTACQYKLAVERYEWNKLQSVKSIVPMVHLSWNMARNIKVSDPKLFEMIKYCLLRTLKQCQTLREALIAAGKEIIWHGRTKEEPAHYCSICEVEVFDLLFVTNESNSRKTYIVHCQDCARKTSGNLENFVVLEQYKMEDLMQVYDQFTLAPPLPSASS

For `CCN(CCN(C)C)C(=O)CNCc1cc(/C=N/CC(CO)C2CCCCC2)ccn1` (stereo not shown) [Compound 81, 2-[({4-[[(2-cyclohexyl-3-hydroxypropyl)-imino]methyl]pyridin-2-yl}methyl)-amino]-N-[2-(dimethylamino)-ethyl]-N-ethylacetamide], the IC50 (in general, the midpoint of a concentration-inhibition curve) at KDM2B (FBXL10) is greater than 2500 nM; on KDM4C (JMJD2C), 250 to 2500 nM; at KDM5B (PLU-1), less than 250 nM; on KDM6A (UTX) it was greater than 2500 nM. The EC50 in the test with MCF7 cells, in the test on KARPAS620 and with MOLP8 was less than 250 nM throughout.

The values above are taken from patent US9650339B2, “Inhibitors of histone demethylases” (Gilead Sciences, Inc., priority 2013, dated 2017).
